≈ marks a conversion by molar mass, not a printed value.
How the values were obtained:
Format in all cases: physicochemical
[1] = Dynamic vapor sorption (DVS), water sorption as Δm; conditions: for Water sorption Δm: 25 °C; for Observed Δm: DVS step compared to theoretical hydrate mass change; for Stable %RH range: RH range of the corresponding hydrate step on DVS; for change in mass (Δm): at 95 % relative humidity (maximum RH), stated in text
Description: The samples were analyzed at 25 °C with a Surface Measurements Systems DVS Advantage. A sample was weighted into a weighing pan and its mass was monitored while it was exposed to different relative humidities (%RH=%P/P0). Before the analysis, the weighing pan was subject to an antistatic program.
The analysis program consisted of two cycles. In each cycle, the relative humidity was increased stepwise up to 95 % RH (starting from 0 % RH, 9 steps with 10 % and one step with 5 %) and then decreased stepwise to 0 % RH again. In both sorption/desorption cycles, at each step, the sample was kept at the set relative humidity until dm/dt <0.002 %, over 15 min.

[2] = Thermal analysis (DSC/TGA), decomposition; conditions: for Onset of decomposition (DSC exotherm): DSC 25 to 300 °C, 10 °C/min
Description: Differential scanning calorimetry (DSC) analyses were carried out on a Mettler DSC822e, equipped with a Thermo Haake EK45/MT cooler. The samples were weighed into a 40 μL Al‐cup, which were then closed with a pierced lid. The sample was scanned from 25 to 300 °C, with a scan rate of 10 °C/min.
Thermogravimetric analysis (TGA) was performed on a Mettler TGA/SDTA 851e, equipped with a Haake C50P cooler. Alternatively, thermogravimetric and DSC analyses were carried out simultaneously in a Mettler Toledo TGA/DSC 3+. The samples were weighed into a 100 μL Al‐cup and this was flushed with dry nitrogen gas during the analysis. The sample was scanned from 25 to 300 °C, with a scan rate of 10 °C/min.

[3] = Phase solubility in deionized water (HPLC); conditions: for pH of mixture: aqueous solubility measurements; for solubility at 24 h: deionized water, thermodynamic from solid
Description: (§1) The pH‐solubility profile of cGMPSA salts and free acid was determined by phase solubility techniques.[18] Briefly, saturated mixtures of the compound were prepared by adding excess amount to 4 mL vials containing 2 mL deionized water, an acidic buffer (0.1 M HCl(aq), pH 1), or a basic buffer (0.1 M NaOH(aq), pH 13). They were allowed to equilibrate for 24 h using mild agitation before recording the pH. The clear solution was separated from the solids by filtration with a Cytiva Whatman™ Mini‐Uniprep™ polypropylene 0.45 μm filter device and diluted to an appropriate analytical concentration where needed. The sample was then analyzed by HPLC, and the solubility determined by integrating the area of the peak of interest against a standard curve. The solids were also analyzed by XRPD to record the crystal modification obtained.

[4] = pH-dependent solubility in acidic buffer 0.1 M HCl(aq); conditions: 0.1 M HCl(aq) acidic buffer, simulated gastric fluid, thermodynamic from solid, pH 1, read-out: Solubility in 0.1M HCl(aq), µg / mL (SD)
Description: as §1

[5] = pH-dependent solubility in basic buffer NaOH(aq); conditions: 0.1 M NaOH(aq) basic buffer, aqueous buffer, thermodynamic from solid, pH 13, read-out: Solubility in 0.1M NaOH(aq), mg / mL (SD)
Description: as §1

[6] = Polymorph screen, approximate solubility in solvents (UHPLC); conditions: thermodynamic from solid
Description: A polymorph screen was done for cGMPSA‐TEA with a similar approach. An excess of the compound was slurried in a range of solvents, typically 20–40 mg in 1 mL. For screens where enough solid material was obtained, it was analyzed by XRPD to record the crystal modification.

[7] = 0 % RH, after final desorption cycle 2 (D2)
[8] = 30 % RH, desorption cycle 2 (D2)
[9] = 60 % RH, desorption cycle 2 (D2)
[10] = 95 % RH, desorption cycle 2 (D2)
[11] = hydrate step stable over 40–70 % RH
[12] = hydrate step stable over 60–95 % RH

O=c1c2nc(Br)n([C@@H]3O[C@@H]4COP(=O)([S-])O[C@H]4[C@H]3O)c2nc2[nH]c(-c3ccccc3)cn12.[Na+] (some centres unmarked) [cGMPSA‐Na]
Water sorption Δm [1, 7]: −0.3% | Water sorption Δm [1, 8]: 6.3% | Water sorption Δm ([1]; 30 % RH, sorption cycle 1 (S1)): 2.2% | Water sorption Δm [1, 9]: 12.5% | Water sorption Δm ([1]; 60 % RH, sorption cycle 1 (S1)): 8.1% | Water sorption Δm [1, 10]: 15.1% | Water sorption Δm ([1]; 95 % RH, sorption cycle 1 (S1)): 15.1% | Δm after desorption ([1]; equilibrated value after desorption cycles, 0 % RH): ~ 0 | Onset of decomposition (DSC exotherm) [2]: 212 °C | pH of mixture ([3]; supplement): 5,45 | pH at saturation solubility ([3]; deionized H2O, quadruplicates): 5.5 (±0.2) | solubility ([3]; deionized H2O, quadruplicates): 38.4 (±11.1) mg/mL | solubility ([3]; deionized H2O, quadruplicates, listed as sodium): 38 mg/mL | solubility ([3]; deionized H2O, quadruplicates, listed as ‐Na): approximately 40 mg/mL

O=c1c2nc(Br)n([C@@H]3O[C@@H]4COP(=O)([S-])O[C@H]4[C@H]3O)c2nc2[nH]c(-c3ccccc3)cn12.O=c1c2nc(Br)n([C@@H]3O[C@@H]4COP(=O)([S-])O[C@H]4[C@H]3O)c2nc2[nH]c(-c3ccccc3)cn12.[Ca+2] (some centres unmarked) [cGMPSA‐Ca]
Water sorption Δm [1, 7]: 1.9% | Water sorption Δm [1, 8]: 12.4% | Water sorption Δm ([1]; 30 % RH, sorption cycle 1 (S1)): 5.3% | Water sorption Δm [1, 9]: 15.5% | Water sorption Δm ([1]; 60 % RH, sorption cycle 1 (S1)): 7.1% | Water sorption Δm [1, 10]: 22.0% | Water sorption Δm ([1]; 95 % RH, sorption cycle 1 (S1)): 21.9% | Observed Δm [1]: 1.9% | Stable %RH range [1]: 0 %RH | change in mass (Δm) [1]: 22% | enthalpy of decomposition ([2]; DSC): 162.3 J/g | Onset of decomposition (DSC exotherm) [2]: 253.2 °C | pH of mixture ([3]; supplement): 6,88 | pH at saturation solubility ([3]; deionized H2O, quadruplicates): 6.9 (±0.5) | solubility ([3]; deionized H2O, quadruplicates): 0.28 (±0.2) mg/mL

O=c1c2nc(Br)n(C3OC4COP(O)(=S)OC4C3O)c2nc2[nH]c(-c3ccccc3)cn12 (centres unmarked) [cGMPSA‐TEA]
Water sorption Δm [1, 7]: −1.0% | Water sorption Δm [1, 8]: 3.5% | Water sorption Δm ([1]; 30 % RH, sorption cycle 1 (S1)): 3.4% | Water sorption Δm [1, 9]: 4.8% | Water sorption Δm ([1]; 60 % RH, sorption cycle 1 (S1)): 4.0% | Water sorption Δm [1, 10]: 5.2% | Water sorption Δm ([1]; 95 % RH, sorption cycle 1 (S1)): 5.0% | change in mass (Δm) [1]: about 5% | solubility at 24 h [4]: 5 µg/mL (≈ 9.25 µM) | solubility at 24 h [5]: 51600 µg/mL (≈ 95500 µM) | solubility ([6]; aqueous with cosolvent or surfactant or cyclodextrin, solvent EtOH+H2O 1 : 1 v/v, solution): > 40000 µg/mL | solubility ([6]; aqueous with cosolvent or surfactant or cyclodextrin, solvent MeCN+H2O 1 : 1 v/v, solution): > 40000 µg/mL | solubility ([6]; aqueous with cosolvent or surfactant or cyclodextrin, solvent MeOH+H2O 1 : 1 v/v, solution): > 40000 µg/mL | solubility ([6]; aqueous with cosolvent or surfactant or cyclodextrin, solvent THF+H2O 1 : 1 v/v, solution): > 40000 µg/mL | solubility ([6]; organic solvent or mixture, solvent 2‐PrOH): 105 µg/mL (≈ 194 µM) | solubility ([6]; organic solvent or mixture, solvent Acetone): 285 µg/mL (≈ 527 µM) | solubility ([6]; organic solvent or mixture, solvent DMF, solution): > 40000 µg/mL | solubility ([6]; organic solvent or mixture, solvent DMSO, solution): > 40000 µg/mL | solubility ([6]; organic solvent or mixture, solvent Dichloromethane): 30 µg/mL (≈ 55.5 µM) | solubility ([6]; organic solvent or mixture, solvent Diethyl ether): 3 µg/mL (≈ 5.55 µM) | solubility ([6]; organic solvent or mixture, solvent Dimethoxyethane): 15 µg/mL (≈ 27.8 µM) | solubility ([6]; organic solvent or mixture, solvent Dioxane): 30 µg/mL (≈ 55.5 µM) | solubility ([6]; organic solvent or mixture, solvent EtOAc): 5 µg/mL (≈ 9.25 µM) | solubility ([6]; organic solvent or mixture, solvent EtOH): 1610 µg/mL (≈ 2980 µM) | solubility ([6]; organic solvent or mixture, solvent EtOH+THF 1 : 1 v/v, solution): > 40000 µg/mL | solubility ([6]; organic solvent or mixture, solvent MeCN): 114 µg/mL (≈ 211 µM) | solubility ([6]; organic solvent or mixture, solvent MeOH): 40 µg/mL (≈ 74 µM) | solubility ([6]; organic solvent or mixture, solvent MeTHF): 10 µg/mL (≈ 18.5 µM) | solubility ([6]; organic solvent or mixture, solvent THF): 28 µg/mL (≈ 51.8 µM) | solubility ([6]; organic solvent or mixture, solvent i‐PrOAc): 10 µg/mL (≈ 18.5 µM) | solubility ([6]; organic solvent or mixture, solvent n‐BuOH): 210 µg/mL (≈ 389 µM) | pH of mixture ([3]; supplement): 4,38 | pH at saturation solubility ([3]; deionized H2O, quadruplicates): 4.4 (±0.4) | solubility at 24 h ([3]; pH 4.38, water, supplement, read-out: Aqueous solubility measurements): 8900 µg/mL (≈ 16500 µM) | solubility at 24 h ([3]; pH 4.4, water, deionized H2O, quadruplicates, read-out: Solubility): 8800 µg/mL (≈ 16300 µM)

O=c1c2nc(Br)n([C@@H]3O[C@@H]4CO[P@@](O)(=S)O[C@H]4[C@H]3O)c2nc2[nH]c(-c3ccccc3)cn12.O=c1c2nc(Br)n([C@@H]3O[C@@H]4CO[P@@](O)(=S)O[C@H]4[C@H]3O)c2nc2[nH]c(-c3ccccc3)cn12.c1ccc(CNCCNCc2ccccc2)cc1 [cGMPSA‐BZ, N,N′-Dibenzylethylenediammonium RP-8-Bromo-β-phenyl-1,N2-ethenoguanosine-3′,5′-cyclicmonophosphorothioate (1:2)]
Water sorption Δm [1, 7]: −0.2% | Water sorption Δm [1, 8]: 0.7% | Water sorption Δm ([1]; 30 % RH, sorption cycle 1 (S1)): 0.6% | Water sorption Δm [1, 9]: 3.9% | Water sorption Δm ([1]; 60 % RH, sorption cycle 1 (S1)): 1.9% | Water sorption Δm [1, 10]: 4.7% | Water sorption Δm ([1]; 95 % RH, sorption cycle 1 (S1)): 4.8% | Observed Δm [1, 11]: 1.3% | Observed Δm [1, 12]: 3.9% | Stable %RH range [1, 11]: 40–70 %RH | Stable %RH range [1, 12]: 60–95 %RH | change in mass (Δm) [1]: 5% | change in mass (Δm) ([1]; listed as ‐BZ): about 5% | pH of mixture ([3]; supplement): 6,81 | pH at saturation solubility ([3]; deionized H2O, quadruplicates): 6.8 (±0.1) | solubility ([3]; deionized H2O, quadruplicates): 0.01 (±0.01) mg/mL

Source: PMC10695737, “Crystal Modifications of a Cyclic Guanosine Phosphorothioate Analogue, a Drug Candidate for Retinal Neurodegenerations” (ChemistryOpen, 2023)
